Assay results taken from patent US9079888B2, “Compounds as histamine H3 receptor ligands” (Suven Life Sciences Limited, priority 2011, dated 2015).
Read-outs that look alike come from different tables or passages of the source. One block for each compound: values may come before it.

Key:
[1] = male, Wistar, rat, in vivo
Protocol: (§2) Male Wistar rats (230-280 grams) obtained from NIN (National Institute of Nutrition, Hyderabad, India) were used as an experimental animal. Three animals were housed in each cage. Animals were kept fasted over night and maintained on a 12 hours light/dark cycle. Three rats were dosed New chemical entity (NCE) orally (3 or 10 mg/kg) and intravenously (1 or 5 mg/kg) on day 0 and day 2.
(§3) At each time point blood was collected by jugular vein. Blood was stored at 2-8° C. until analysis. The concentrations of the NCE compound in blood were determined using LC-MS/MS method. Schedule time points: Pre dose 0.08, 0.25, 0.5, 1, 2, 4, 6, 8 and 24 hours after dosing (n=3). The NCE compounds were quantified in blood by partially validated LC-MS/MS method using acetonitrile precipitation technique. […] Study samples were analyzed using calibration samples in the batch and quality control samples spread across the batch.
(§4) Pharmacokinetic parameters were calculated by non-compartmental model using software WinNonlin version 5.0.1.

[2] = Rodent Brain Penetration Study; type: in vivo, Male Wister rats; details: brain / whole blood; Wistar/Male rat, Per Oral, 3 mg/kg, vehicle water; read-out: Brain Penetration Ratio (Cbrain/Cblood)
Protocol: Three animals were housed in each cage. Animals were given water and food ad libitum throughout the experiment, and maintained on a 12 hours light/dark cycle.
New chemical entity (NCE) was dissolved in suitable vehicle and administered orally (3 or 10 mg/kg). […] Blood and brain tissue were collected and brain was homogenized to yield 20% w/v. Blood was stored at 2-8° C. and brain homogenate was frozen at −20° C. until analysis. The concentrations of NCE in blood and brain were quantified using LC-MS/MS method.
Extents of brain-blood ratio were calculated (Cbrian/Cblood)

[3] = tested on: Scopolamine Induced amnesia; assay: Morris Water Maze; type: in vivo, rats; details: rat, active dose p.o.
Protocol: (§1) The cognition enhancing properties of compounds of this invention were estimated by using this model.
The water maze apparatus consisted of a circular pool (1.8 m diameter, 0.6 m high) constructed in black Perspex (TSE systems, Germany) filled with water (24±2° C.) and positioned underneath a wide-angled video camera to track animal. The 10 cm^2 perspex platform, lying 1 cm below the water surface, was placed in the centre of one of the four imaginary quadrants, which remained constant for all rats. The black Perspex used in the construction of the maze and platform offered no intramaze cues to guide escape behavior. By contrast, the training room offered several strong extramaze visual cues to aid the formation of the spatial map necessary for escape learning. An automated tracking system, [Videomot 2 (5.51), TSE systems, Germany] was employed. This program analyzes video images acquired via a digital camera and an image acquisition boards that determined path length, swim speed and the number of entries and duration of swim time spent in each quadrant of the water maze.

Male Wister rats = assay: Object Recognition Task Model; type: in vivo; details: rat; for Exploration time mean ± S.E.M, Familiar object / Exploration time mean ± S.E.M, Novel object: choice trial T2 24 h after T1
Protocol: as §1
Male Wister rats (230-280 grams) obtained from N. I. N. (National Institute of Nutrition, Hyderabad, India) was used as experimental animals. Four animals were housed in each cage. Animals were kept on 20% food deprivation before one day and given water ad libitum throughout the experiment and maintained on a 12 hours light/dark cycle. Also the rats were habituated to individual arenas for 1 hour in the absence of any objects.
One group of 12 rats received vehicle (1 mL/Kg) orally and another set of animals received compound of the formula (I) either orally or i.p., before one hour of the familiar (T1) and choice trial (T2).
The experiment was carried out in a 50×50×50 cm open field made up of acrylic. In the familiarization phase, (T1), the rats were placed individually in the open field for 3 minutes, in which two identical objects (plastic bottles, 12.5 cm height×5.5 cm diameter) covered in yellow masking tape alone (a1 and a2) were positioned in two adjacent corners, 10 cms from the walls. After 24 hours of the (T1) trial for long-term memory test, the same rats were placed in the same arena as they were placed in T1 trial. Choice phase (T2) rats were allowed to explore the open field for 3 minutes in presence of one familiar object (a3) and one novel object (b) (Amber color glass bottle, 12 cm high and 5 cm in diameter). Familiar objects presented similar textures, colors and sizes. During the T1 and T2 trial, explorations of each object (defined as sniffing, licking, chewing or having moving vibrissae whilst directing the nose towards the object at a distance of less than 1 cm) were recorded separately by stopwatch. Sitting on an object was not regarded as exploratory activity, however, it was rarely observed.
T1 is the total time spent exploring the familiar objects (a1+a2).
T2 is the total time spent exploring the familiar object and novel object (a3+b).
The object recognition test was performed as described by Ennaceur, A., Delacour, J., 1988, A new one-trial test for neurobiological studies of memory in rats—Behavioural data, Behay. Brain Res., 31, 47-59.

in vivo = details: male, Wistar, rat, po, 3 mg/kg
Protocol: as §2, §3, §4

[4] = Rodent Pharmacokinetic Study; details: male, Wistar, rat, whole blood
Protocol: as §2, §3, §4

[5] = biological target: Human or Rat Histamine H3 Receptor; assay: Binding assay for human or rat Histamine H3 receptor ([3H] R-α-methylhistamine displacement); details: radioligand [3H] R-α-methylhistamine 3.0 nM; receptor source rat brain frontal cortex or recombinant human cDNA in CHO cells (table does not say which)
Protocol: The reaction was terminated by rapid vacuum filtration onto the glass fiber filters. Radioactivity trapped onto the filters was determined and compared to the control values in order to ascertain any interactions of the test compound(s) with either cloned human or rat receptor binding site.

SMILES: Cl.Cl.O=C(CN1CCOCC1)Nc1ccc(OC2CCN(C3CCC3)CC2)cc1 [Example 1, N-[4-(1-Cyclobutylpiperidin-4-yloxy)phenyl]-2-(morpholin-4-yl)-acetamide dihydrochloride]
AUCt ([1]; iv, 1 mg/kg): 263 ± 21 ng·h/mL | AUCt ([1]; po, 3 mg/kg): 626 ± 118 ng·h/mL | Kp [2]: 0.93 ± 0.05 | Reversal of Scopolamine Induced amnesia [3]: ≦1 mg/kg, p.o. | Inference (Male Wister rats; 0.3 mg/kg p.o.): Active | Exploration time mean ± S.E.M, Familiar object (Male Wister rats; 0.3 mg/kg p.o.): 5.56 ± 0.81 s | Exploration time mean ± S.E.M, Novel object (Male Wister rats; 0.3 mg/kg p.o.): 15.36 ± 1.74 s | Cmax (in vivo): 349 ± 35 ng/mL | Tmax (in vivo): 0.42 ± 0.14 h | bioavailability (in vivo): 79 ± 11%

AUC(0-t) ([4]; iv, 1 mg/kg): 68 ± 2 ng·h/mL | half-life ([4]; iv, 1 mg/kg): 3.3 ± 0.42 h | AUC(0-t) ([4]; po, 3 mg/kg): 64 ± 16 ng·h/mL | Cmax ([4]; po, 3 mg/kg): 27 ± 11 ng/mL | Tmax ([4]; po, 3 mg/kg): 0.5 h | bioavailability ([4]; po, 3 mg/kg): 32 ± 8% | half-life ([4]; po, 3 mg/kg): 3.59 ± 0.43 h | Kp [2]: 1.24 ± 0.18 | Ki [5]: 9.73 nM
SMILES: CC(=O)N(CCN1CCOCC1)c1ccc(OC2CCN(C3CCC3)CC2)cc1F [Example 37, N-[4-(1-Cyclobutylpiperidin-4-yloxy)-2-fluorophenyl]-N-[2-(morpholin-4-yl)-ethyl] acetamide]
Inference (Male Wister rats; 3 mg/kg p.o.): Active | Exploration time mean ± S.E.M, Familiar object (Male Wister rats; 3 mg/kg p.o.): 5.53 ± 1.67 s | Exploration time mean ± S.E.M, Novel object (Male Wister rats; 3 mg/kg p.o.): 14.18 ± 2.04 s
